For six compounds, Activity results are on record in ChEMBL document CHEMBL1159291, “Bioactive Constituents from the Flower Buds and Peduncles of Lindera megaphylla” (J Nat Prod, 1995).

For data set [1], the system named is Aorta. In words: Inhibition of KCl-induced contraction in Wistar rat aorta assessed as contraction at 1 uM preincubated 15 mins before addition of KCl relative to control. It counts as functional. Also on record: scale not given: the % may be the effect or the level left.
Data set [2] has as its system Aorta. Nature of the data set: Inhibition of norepinephrine-induced contraction in Wistar rat aorta assessed as contraction at 1 uM preincubated 15 mins before addition of norepinephrine relative to control. Format: functional. Set-up: scale not given: the % may be the effect or the level left.
The test system of data set [3] is Platelet. Nature of the data set: Inhibition of arachidonic acid-induced rabbit platelet aggregation assessed as aggregation at 300 uM preincubated 3 mins before arachidonic acid challenge by turbidimetric method. Format: functional, Oryctolagus cuniculus. Also on record: scale not given: the % may be the effect or the level left.
In data set [4] the test system is Aorta. In words: Inhibition of KCl-induced contraction in Wistar rat aorta assessed as contraction at 60 uM preincubated 15 mins before addition of KCl relative to control. Format: functional. Also on record: scale not given: the % may be the effect or the level left.
The subject of data set [5] is Aorta. In words: Inhibition of KCl-induced contraction in Wistar rat aorta assessed as contraction at 120 uM preincubated 15 mins before addition of KCl relative to control. It counts as functional. Set-up: scale not given: the % may be the effect or the level left.
In data set [6] the test system is Platelet. Nature of the data set: Inhibition of collagen-induced rabbit platelet aggregation assessed as aggregation at 300 uM preincubated 3 mins before collagen challenge by turbidimetric method. It counts as functional, Oryctolagus cuniculus. Also on record: scale not given: the % may be the effect or the level left.
The test system of data set [7] is Aorta. In words: Inhibition of norepinephrine-induced contraction in Wistar rat aorta assessed as contraction at 60 uM preincubated 15 mins before addition of norepinephrine relative to control. Set-up: scale not given: the % may be the effect or the level left. It counts as functional.
The subject of data set [8] is Aorta. In words: Inhibition of norepinephrine-induced contraction in Wistar rat aorta assessed as contraction at 120 uM preincubated 15 mins before addition of norepinephrine relative to control. Format: functional. Set-up: scale not given: the % may be the effect or the level left.
The test system of data set [9] is Platelet. Nature of the data set: Inhibition of arachidonic acid-induced rabbit platelet aggregation assessed as aggregation at 50 uM by turbidimetric method. It counts as functional, Oryctolagus cuniculus. Also on record: scale not given: the % may be the effect or the level left.
Data set [10] relates to Platelet. In words: Inhibition of collagen-induced rabbit platelet aggregation assessed as aggregation at 50 uM by turbidimetric method. It counts as functional, Oryctolagus cuniculus. Also on record: scale not given: the % may be the effect or the level left.
A short description of data set [11]: Induction of rabbit platelet aggregation at 300 uM by turbidimetric method. It counts as cell-based, Oryctolagus cuniculus.
The test system of data set [12] is Aorta. Nature of the data set: Inhibition of KCl-induced contraction in Wistar rat aorta assessed as contraction at 9 uM preincubated 15 mins before addition of KCl relative to control. It counts as functional. Also on record: scale not given: the % may be the effect or the level left.
The subject of data set [13] is Aorta. In words: Inhibition of norepinephrine-induced contraction in Wistar rat aorta assessed as contraction at 9 uM preincubated 15 mins before addition of norepinephrine relative to control. Set-up: scale not given: the % may be the effect or the level left. Format: functional.

Turning to `COC(=O)C1=C(C)NC(C)=C(C(=O)OC)C1c1ccccc1[N+](=O)[O-]` [NIFEDIPINE], the Activity in the data set on Aorta [1] came to 0%; in the data set on Aorta [2], 96.5%.

For `COc1ccc2c(c1OC)-c1c3c(cc4c1[C@H](C2)N(C)CC4)OCO3`, the Activity with Platelet [3] came to 73%; in the data set with Aorta [4], 88.5%; with Aorta [5], 55.2%; in the data set with Platelet [6], 60.8%; with Aorta [7], 68.1%; in the data set on Aorta [8], 22.9%.

For `CC(=O)Oc1ccccc1C(=O)O` [ASPIRIN], the Activity in the data set on Platelet [9] is on record as 0%; in the data set on Platelet [10] it was 85.4%.

Turning to `COc1cc2c(cc1OC)-c1c3c(cc4ccnc(c14)C2=O)OCO3` [DICENTRINONE], the figures for the Activity result (in data set [11]; in the data set on Aorta [5]; in the data set with Aorta [8]) were “Not Active”, 102.1% and 112.4%, respectively.

For the compound `COc1cc2cc3c4c(cc5c(c4c2cc1OC)OCO5)CCN3C` [DEHYDRODICENTRINE], the Activity result in [11] is “Not Active”; with Aorta [5] it was 108%; with Aorta [8] it was 95.5%.

Regarding `COc1cc2c(cc1OC)-c1c3c(cc4c1[C@H](C2)N(C)CC4)OCO3` [DICENTRINE], the Activity came out at 0% in the data set on Platelet [3], 77.5% with Aorta [12], 3.1% with Platelet [6] and 22.5% with Aorta [13].
